A value given as a limit tells only on which side of the number the result lay.

Data on 29 molecules can be found in patent US20220119355A1, “SATURATED-RING-FUSED DIHYDROPYRIMIDINONE OR DIHYDROTRIAZINONE COMPOUNDS AND PHARMACEUTICAL USE THEREOF” (Japan Tobacco Inc., priority 2018, published 2022).

For test [1], the target named is T1, human RORγ (Homo sapiens, UniProt P51449).
T1 construct: from Ser253 to Lys518 for human RORγ; expressed in transfected cells; host or cells: CHO cells (transient co-transfection with pG5-Luc)
T1 sequence (P51449 253-518): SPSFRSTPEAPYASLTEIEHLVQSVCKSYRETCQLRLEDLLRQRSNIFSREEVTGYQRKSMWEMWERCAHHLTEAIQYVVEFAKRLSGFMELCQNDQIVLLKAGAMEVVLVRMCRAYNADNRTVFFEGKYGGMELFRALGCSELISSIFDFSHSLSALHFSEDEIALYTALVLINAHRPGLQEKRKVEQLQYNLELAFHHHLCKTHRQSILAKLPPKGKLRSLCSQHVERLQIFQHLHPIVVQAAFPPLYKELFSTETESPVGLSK
Briefly: In-vitro reporter gene assay for inhibitory activity against RORγ transcription, Test Method A (GAL4-hRORγ LBD / pG5-Luc in CHO cells). The format is cell-based. As to conditions: luciferase reporter, 2 days. Here is the method: (§1) In-Vitro Assay for Inhibitory Activity Against RORγ Transcription
(§2) Inhibitory activity against RORγ transcription was assessed for test compounds by either of the following Test Method A or B of reporter gene assay.
(§3) cDNAs encoding human and mouse RORγ ligand binding domains (LBD) were obtained based on the sequences of human RORγ (Genbank registered number NM_005060.3) and mouse RORγ (Genbank registered number NM_011281.2) (LBD sequences: from Ser253 to Lys518 for human RORγ; from Ile251 to Lys516 for mouse RORγ).
(§4) LBD cDNAs of human and mouse RORγ were inserted into pFA-CMV vector (Stratagene), which expresses GAL4-DNA binding domain fusion protein. The resulting plasmids are hereinafter referred to as GAL4-hRORγ plasmid and GAL4-mRORγ plasmid, respectively.
(§5) GAL4-hRORγ plasmid or GAL4-mRORγ plasmid was transiently co-transfected into Chinese hamster ovary cells (CHO cells) with pG5-Luc (Promega), reporter plasmid expressing firefly luciferase in a GAL4-dependent manner.
(§6) TransIT (Registered trademark) CHO Transfection Kit (Mirus) was used to co-transfect CHO cells with the plasmids. One day prior to the assay, CHO cells were suspended in HAM F-12 Nutrient medium containing 10% (v/v) fetal bovine serum and seeded at 6×10^6 cells per 175 cm^2 cell culture flask each. 54 μL of TransIT (Registered trademark) CHO reagent was added into a 15 mL tube containing 1.16 mL of HAM F-12 Nutrient medium without fetal bovine serum, and then mixed and incubated at room temperature for 10 minutes. 36 μL of a plasmid solution containing 400 ng of GAL4-hRORγ plasmid, 9000 ng of pG5-Luc plasmid, and 8600 ng of pcDNA3 plasmid were added into the tube and mixed gently. In the case of mouse assay, a plasmid solution containing 250 ng of GAL4-mRORγ plasmid, 9000 ng of pG5-Luc plasmid, and 8750 ng of pcDNA3 plasmid was added, instead. The mixture was incubated at room temperature for 10 minutes. 9 μL each of CHO Mojo Reagent were then added into each tube and mixed gently. The mixture was incubated at room temperature for 10 minutes. The resulting transfection reagent was applied to the cell culture. After incubation at 37° C., 5% CO2 for 4 hours, the plasmid-transfected CHO cells were harvested by trypsin treatment. The collected cells were resuspended in culture medium and plated into a 384-well-white plate at 8,000 cells/50 μL/well. The plate was let stand at room temperature for 1 hour and then further incubated at 37° C., 5% CO2 for 3 hours. A test compound was dissolved in DMSO to obtain a concentration of 10 mM. Each solution was serially diluted with DMSO and further diluted with culture medium just before use. The test compound solutions were added. to the cells in the plate at 8 different concentrations. The final concentration of DMSO was 0.2% (v/v). After the addition of test compound, the cells were incubated at […], 5% CO2 for 2 days.
(§7) RORγ transcriptional activity was detected as the intracellular luciferase activity using SteadyLite HTS Reporter Gene Assay System (Perkin Elmer). SteadyLite Reagent was diluted five-fold with Extension buffer (10 mM Tricine, 0.2% (w/v) bovine serum albumin, 0.02% (v/v) Tween-20) to obtain a luciferase substrate solution. After the measurement of the cell viability with Resazurin, the medium was removed in the plate and the luciferase substrate solution was added thereto. After the incubation at room temperature for 10 minutes, luminescence of each well was measured with a microplate reader. The luciferase activity derived from the luminescence count in a vehicle-control well treated with 0.2% DMSO alone was defined as 100%, and the luciferase activity after treatment with the test compound was calculated as a percentage, %-of-control, based on the value of the vehicle-control. An EC50 value of the test compound was calculated by curve fitting with GraphPad Prism. The luminescence counts at the concentration of test compound where cytotoxicity was observed were excluded from data analysis. […]
For orientation: In a reporter assay the amount or activity of a reporter protein is the signal.

In test [2] the target is T2, mouse RORγ (Mus musculus, UniProt P51450).
T2 construct: from Ile251 to Lys516 for mouse RORγ; expressed in transfected cells; host or cells: CHO cells (transient co-transfection with pG5-Luc)
T2 sequence (P51450 251-516): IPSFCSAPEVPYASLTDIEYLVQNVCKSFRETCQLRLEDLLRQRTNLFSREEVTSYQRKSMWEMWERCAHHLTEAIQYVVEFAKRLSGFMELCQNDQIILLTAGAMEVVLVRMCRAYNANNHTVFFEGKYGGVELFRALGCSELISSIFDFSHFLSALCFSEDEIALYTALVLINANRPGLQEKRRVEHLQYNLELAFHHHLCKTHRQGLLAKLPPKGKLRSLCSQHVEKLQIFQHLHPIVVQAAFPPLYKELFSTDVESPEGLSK
Put plainly: In-vitro reporter gene assay for inhibitory activity against RORγ transcription, Test Method A (GAL4-mRORγ LBD / pG5-Luc in CHO cells). The format is cell-based. The note with it: luciferase reporter, 2 days. Here is the method: as §1, §2, §3, §4, §5, §6, §7

The term EC50 denotes the midpoint of the concentration-response curve. Consider `CCOC(=O)CCN1C=C2C(CC(=O)O)CCCC2(c2ccc(CCC(C)(C)C)c(Cl)c2)NC1=O` (racemic) [Example 45], for which the EC50 in test [1] was found to be 1.63 µM; in test [2], 0.84 µM.

Consider `CC(C)(C)CCc1ccc(C23COC(C)(C)C2=CN(CCC(=O)O)C(=O)N3)cc1Cl` (single isomer, unassigned) [Example 5], for which the EC50 in test [1] is 0.007 µM; in test [2], 0.009 µM.

Take `CC(C)(C)CCc1ccc([C@@]23CCC(C)(C)CC2=CN(CCC(=O)O)C(=O)N3)cc1Cl` (single isomer, unassigned) [Example 83]: the half-maximal effective concentration (EC50) in test [1] was 0.014 µM; in test [2] it was 0.018 µM.

On to `CC(C)(C)CCc1ccc(C23CCCC(CO)C2=CN(CCC(=O)O)C(=O)N3)cc1Cl` (racemic) [Example 55], for which the figures for the half-maximal effective concentration (EC50) in test [1] and in test [2] were 0.093 µM and 0.058 µM, respectively.

Consider `CC(C)(C)CCc1ccc([C@]23CCCC(C)(C)C2=CN(CCC(=O)O)C(=O)N3)cc1Cl` (single isomer, unassigned) [Example 37], for which the EC50 turned out to be 3.87 µM in test [1] and 5.51 µM in test [2].

In the case of `COCCC1CCC2(c3ccc(CCC(C)(C)C)c(Cl)c3)NC(=O)N(CCC(=O)O)C=C12` (single isomer, unassigned) [Example 27, 3-{7a-[3-Chloro-4-(3,3-dimethyl-butyl)phenyl]-5-(2-methoxy-ethyl)-2-oxo-1,2,5,6,7,7a-hexahydro-cyclopentapyrimidin-3-yl}propionate], the EC50 in test [1] was found to be 0.027 µM; in test [2], 0.039 µM.

Take `CC(C)(C)CCOc1ccc(C23CCCCC2=CN(CCC(=O)O)C(=O)N3)cc1Cl` (racemic) [Example 61]: the EC50 in test [1] turned out to be 0.106 µM; in test [2], 0.068 µM.

For the molecule `COCC1OC[C@@]2(c3ccc(CCC(C)(C)C)c(Cl)c3)NC(=O)N(CCC(=O)O)C=C12` (single isomer, unassigned) [Example 20], the EC50 in test [1] and in test [2] was 0.025 µM throughout.

`CC1CCC[C@]2(c3ccc(CCC(C)(C)C)c(Cl)c3)NC(=O)N(C34CC(C(=O)O)(C3)C4)C=C12` (single isomer, unassigned) [Example 78]: the concentration giving a half-maximal response (EC50) in test [1] is 2.2 µM; in test [2], more than 3.2 µM.

As for `CC(C)(C)CCc1ccc(C23CCCC(CCOS(C)(=O)=O)C2=CN(CCC(=O)O)C(=O)N3)cc1Cl` (racemic) [Example 48], the EC50 in test [1] amounted to 1.99 µM; in test [2], 1.87 µM.

With `CC(=O)N1CC2=CN(CCC(=O)O)C(=O)NC2(c2ccc(CCC(C)(C)C)c(Cl)c2)C1` (racemic) [Example 14], the concentration for a half-maximal effect (EC50) in test [1] is 2.88 µM; in test [2], 3.8 µM.

As to `CC(C)(C)CCc1ccc(C23CCCC(CC(N)=O)C2=CN(CCC(=O)O)C(=O)N3)cc1Cl` (racemic) [Example 51], the EC50 in test [1] stood at 4.97 µM; in test [2], 1.8 µM.

For the molecule `CC1CC[C@]2(c3ccc(CCC(C)(C)C)c(Cl)c3)NC(=O)N(CCC(=O)O)C=C2C1` (single isomer, unassigned) [Example 80], the EC50 in test [1] and in test [2] was more than 10 µM in each case.

For `CC1=C2CCCCC2(c2ccc(CCC(C)(C)C)c(Cl)c2)NC(=O)N1CCC(=O)O` (racemic) [Example 42], the EC50 in test [1] amounted to 0.29 µM; in test [2] it was 0.139 µM.

On to `CC(C)(C)CCc1ccc(C23CCCC(CC#N)C2=CN(CCC(=O)O)C(=O)N3)cc1Cl` (racemic) [Example 52], for which the EC50 in test [1] was found to be 0.018 µM; in test [2], 0.029 µM.

On to `CC(=O)NCC1CCC2(c3ccc(CCC(C)(C)C)c(Cl)c3)NC(=O)N(CCC(=O)O)C=C12` (racemic) [Example 30], for which the EC50 in test [1] and in test [2] was more than 20 µM throughout.

As to `C[C@@H]1CCC2(c3ccc(CCC(C)(C)C)c(Cl)c3)NC(=O)N(CCC(=O)O)C=C12` (single isomer, unassigned) [Example 11], the 50% effective concentration (EC50) was 0.021 µM in test [1] and 0.022 µM in test [2].

In the case of `COC1CC[C@@]2(c3ccc(CCC(C)(C)C)c(Cl)c3)NC(=O)N(C34CC(C(=O)O)(C3)C4)C=C2C1` (single isomer, unassigned) [Example 77], the results for the EC50 in test [1] and in test [2] were 0.024 µM and 0.031 µM, respectively.

`CN(C)CCC1CCC2(c3ccc(CCC(C)(C)C)c(Cl)c3)NC(=O)N(CCC(=O)O)C=C12` (single isomer, unassigned) [Example 28]: the 50% effective concentration (EC50) in test [1] and in test [2] was more than 20 µM throughout.

Consider `COC1CC[C@]2(c3ccc(CCC(C)(C)C)c(Cl)c3)NC(=O)N(C34CC(C(=O)O)(C3)C4)C=C2C1` (single isomer, unassigned) [Example 76], for which the concentration giving a half-maximal response (EC50) in test [1] is 2.41 µM; in test [2], 3.03 µM.

Consider `CC(C)(C)CCc1ccc([C@]23CCC(C)(C)CC2=CN(CCC(=O)O)C(=O)N3)cc1Cl` (single isomer, unassigned) [Example 82], for which the 50% effective concentration (EC50) in test [1] was 9.87 µM; in test [2] it was 9.79 µM.

Take `CC(C)(C)COc1ccc(C23CCCCC2=NNC(=O)N3)cc1Cl` (racemic) [Example 36]: the figures for the EC50 in test [1] and in test [2] were 0.435 µM and 0.071 µM, respectively.

As for `COCCC1CCCC2(c3ccc(CCC(C)(C)C)c(Cl)c3)NC(=O)N(CCC(=O)O)C=C12` (racemic) [Example 46], the concentration for a half-maximal effect (EC50) in test [1] came to 0.302 µM; in test [2], 0.211 µM.

With `O=C(O)CCN1C=C2CCCCC2(c2ccc(OCC3(C(F)(F)F)CC3)c(Cl)c2)NC1=O` (racemic) [Example 65], the values for the concentration giving a half-maximal response (EC50) in test [1] and in test [2] were 1.16 µM and 0.16 µM, respectively.

With `COCC1OC[C@]2(c3ccc(CCC(C)(C)C)c(Cl)c3)NC(=O)N(CCC(=O)O)C=C12` (single isomer, unassigned) [Example 19], the EC50 in test [1] came out at 17.1 µM; in test [2] it was 15.6 µM.

Regarding `CC(C)(C)CCc1ccc(C23COCCC2=CN(CCC(=O)O)C(=O)N3)cc1Cl` (racemic) [Example 58], the EC50 turned out to be 0.033 µM in test [1] and 0.02 µM in test [2].

For the molecule `COC1CC[C@@]2(c3ccc(CCC(C)(C)C)c(Cl)c3)NC(=O)N(CCC(=O)O)C=C2C1` (single isomer, unassigned) [Example 68], the EC50 in test [1] was determined as 0.015 µM; in test [2] it was 0.016 µM.

For `CC(C)(C)CCc1ccc(C23COC(COC(C)(C)C)C2=CN(CCC(=O)O)C(=O)N3)cc1Cl` (single isomer, unassigned) [Example 21], the EC50 turned out to be 2.26 µM in test [1] and 1.27 µM in test [2].

Turning to `CC(C)(C)CCc1ccc([C@]23CCCCC2=CN(CCC(=O)O)C(=O)N3)cc1Cl` (single isomer, unassigned) [Example 40], the 50% effective concentration (EC50) in test [1] came to 4.64 µM; in test [2], 5.33 µM.
